# Results published in ChEMBL document CHEMBL1134192, “Targeting RNA with peptidomimetic oligomers in human cells” (Bioorg Med Chem Lett, 2001).
# Organism: Homo sapiens
# Assay: Concentration that inhibits transcriptional activation of Tat protein in human cells
# Format: functional, cell-based
row,Compound,IC50 [µM]
1,NCCCC[C@H](CNC(=O)N[C@H](CCCCN)CNC(=O)N[C@H](CCCN=C(N)N)CNC(=O)N[C@H](CCCN=C(N)N)CNC(=O)N[C@H](CCC(N)=O)CNC(=O)N[C@H](CCCN=C(N)N)CNC(=O)N[C@H](CCCN=C(N)N)CNC(=O)N[C@H](CCCN=C(N)N)CNC(=O)[C@@H](N)Cc1ccc(O)cc1)NC(=O)NC[C@@H](CCCN=C(N)N)NC(=O)NCCNC(N)=O,1
2,N=C(N)NCCC[C@@H](COC(=O)N[C@@H](CCCCN)COC(=O)N[C@@H](CCCCN)COC(=O)N[C@@H](CCCN=C(N)N)COC(=O)N[C@@H](CCCN=C(N)N)COC(=O)N[C@@H](CCC(N)=O)COC(=O)N[C@@H](CCCN=C(N)N)COC(=O)N[C@@H](CCCN=C(N)N)COC(=O)N[C@@H](CCCN=C(N)N)C(=O)O)NC(=O)OCCNC(=O)[C@@H](N)Cc1ccc(O)cc1,0.5
